Converted amounts (≈) assume the structure as drawn. The source made the active and inactive calls. The rule behind the calls is not given here.
Legend:
[1] = Cytotoxicity against HEK293 cells measured after 20 hrs by resazurin dye based fluorescence assay; assay type: cell-based; conditions: human
[2] = system: Acinetobacter baumannii; assay: Antibacterial activity against Acinetobacter baumannii ATCC 19606 measured after 18 hrs; assay type: functional; conditions: ATCC 19606 = CIP 70.34 = JCM 6841
[3] = system: Staphylococcus aureus; assay: Antibacterial activity against methicillin resistant Staphylococcus aureus ATCC 43300 at 32 ug/ml measured after 18 hrs; assay type: functional
[4] = system: Pseudomonas aeruginosa; assay: Antibacterial activity against Pseudomonas aeruginosa ATCC 27853 at 32 ug/ml measured after 18 hrs; assay type: functional
[5] = system: Staphylococcus aureus; assay: Antibacterial activity against methicillin resistant Staphylococcus aureus ATCC 43300 measured after 18 hrs; assay type: functional
[6] = system: Escherichia coli; assay: Antibacterial activity against Escherichia coli ATCC 25922 measured after 18 hrs; assay type: functional
[7] = system: Cryptococcus neoformans; assay: Antifungal activity against Cryptococcus neoformans ATCC 208821 at 32 ug/ml measured after 24 hrs by resazurin dye based assay; assay type: functional
[8] = system: Acinetobacter baumannii; assay: Antibacterial activity against Acinetobacter baumannii ATCC 19606 at 32 ug/ml measured after 18 hrs; assay type: functional, ATCC 19606 = CIP 70.34 = JCM 6841
[9] = system: Klebsiella pneumoniae; assay: Antibacterial activity against Klebsiella pneumoniae ATCC 700603 measured after 18 hrs; assay type: functional
[10] = system: Escherichia coli; assay: Antibacterial activity against Escherichia coli ATCC 25922 at 32 ug/ml measured after 18 hrs; assay type: functional
[11] = system: Pseudomonas aeruginosa; assay: Antibacterial activity against Pseudomonas aeruginosa ATCC 27853 measured after 18 hrs; assay type: functional
[12] = system: Candida albicans; assay: Antifungal activity against Candida albicans ATCC 90028 measured after 24 hrs by resazurin dye based assay; assay type: functional
[13] = system: Klebsiella pneumoniae; assay: Antibacterial activity against Klebsiella pneumoniae ATCC 700603 at 32 ug/ml measured after 18 hrs; assay type: functional
[14] = system: Cryptococcus neoformans; assay: Antifungal activity against Cryptococcus neoformans ATCC 208821 measured after 24 hrs by resazurin dye based assay; assay type: functional
[15] = system: Candida albicans; assay: Antifungal activity against Candida albicans ATCC 90028 at 32 ug/ml measured after 24 hrs by resazurin dye based assay; assay type: functional
[16] = ATCC 19606 = CIP 70.34 = JCM 6841, dose 32.0 µg/ml

| Molecule | CC50 at 20 h [1] [µg/mL] | MIC [2] [µg/mL] | Activity ([3]; dose 32 µg/ml) [%] | Activity ([4]; dose 32 µg/ml) [%] | MIC [5] [µg/mL] | MIC [6] [µg/mL] | Activity ([7]; dose 32 µg/ml) [%] | Activity ([8]; dose 32 µg/ml) [%] | MIC [9] [µg/mL] | Activity ([10]; dose 32 µg/ml) [%] | MIC [11] [µg/mL] | MIC [12] [µg/mL] | Activity ([13]; dose 32 µg/ml) [%] | MIC [14] [µg/mL] | Activity ([15]; dose 32 µg/ml) [%] | also measured |
| --- | --- | --- | --- | --- | --- | --- | --- | --- | --- | --- | --- | --- | --- | --- | --- | --- |
| CCc1ccc(-[n+]2cc(-c3ccc(-c4ccccc4)cc3)n3c2CCCCC3)cc1.[Br-] | 1.4 | > 32 | >80 | >80 | 4 | > 32 | >80 | >80 | > 32 | >80 | 32 | 4 | >80 | 8 | >80 |  |
| Cc1ccc(-[n+]2cc(-c3ccc(-c4ccccc4)cc3)n3c2CCCCC3)cc1.[Br-] | 2.1 | > 32 | >80 | >80 | 8 | > 32 | >80 | >80 | > 32 | >80 | > 32 | 8 | >80 | 16 | >80 |  |
| CCOc1ccc(-[n+]2cc(-c3ccc(-c4ccccc4)cc3)n3c2CCCCC3)cc1.[Br-] | 1.7 | > 32 | >80 | >80 | 4 | > 32 | >80 | >80 | > 32 | >80 | 32 | 8 | >80 | 16 | >80 |  |
| OC1(c2ccc(-c3ccccc3)cc2)C[N+](c2ccc(Br)cc2)=C2CCCCCN21.[Br-] (stereo unspecified) | 6.1 | > 32 | >80 | >80 | > 32 | > 32 | >80 | >80 | > 32 | >80 | > 32 | > 32 | >80 | > 32 | >80 |  |
| Cc1ccc([N+]2=C3CCCCCN3C(O)(c3ccc(-c4ccccc4)cc3)C2)cc1.[Br-] (stereo unspecified) | 2.7 | > 32 | >80 | >80 | 16 | > 32 | >80 | >80 | > 32 | >80 | > 32 | > 32 | >80 | > 32 | >80 |  |
| COc1ccc([N+]2=C3CCCCCN3C(O)(c3ccc(-c4ccccc4)cc3)C2)c(OC)c1.[Br-] (stereo unspecified) | 2.4 | > 32 | >80 | >80 | 8 | > 32 | >80 | >80 | > 32 | >80 | 32 | > 32 | >80 | 32 | >80 |  |
| OC1(c2ccc(-c3ccccc3)cc2)C[N+](c2ccc(OC(F)F)cc2)=C2CCCCCN21.[Br-] (stereo unspecified) | 5.8 | > 32 | >80 | >80 | 16 | > 32 | >80 | >80 | > 32 | >80 | > 32 | > 32 | >80 | > 32 | >80 |  |
| CCOc1ccc([N+]2=C3CCCCCN3C(O)(c3ccc(-c4ccccc4)cc3)C2)cc1.[Br-] (stereo unspecified) | 2.4 | > 32 | >80 | >80 | 16 | > 32 | >80 | >80 | > 32 | >80 | > 32 | > 32 | >80 | 32 | >80 |  |
| OC1(c2ccc(-c3ccccc3)cc2)C[N+](c2ccc3c(c2)OCO3)=C2CCCCCN21.[Br-] (stereo unspecified) | 4.5 | > 32 | >80 | >80 | 32 | > 32 | >80 | >80 | > 32 | >80 | > 32 | > 32 | >80 | > 32 | >80 |  |
| OC1(c2ccc(-c3ccccc3)cc2)C[N+](c2ccc(Cl)cc2)=C2CCCCCN21.[Br-] (stereo unspecified) | 3.9 | > 32 | >80 | >80 | 16 | > 32 | >80 | >80 | > 32 | >80 | 32 | > 32 | >80 | > 32 | >80 |  |
| OC(Cn1cncn1)(Cn1cncn1)c1ccc(F)cc1F [FLUCONAZOLE] |  |  |  |  |  |  |  |  |  |  |  | 0.125 (≈ 0.408 µM) |  | 8 (≈ 26.1 µM) |  |  |
| COLISTIN |  | 0.25 |  |  |  | 0.125 |  |  | 0.25 |  | 0.25 |  |  |  |  |  |
| COc1ccccc1[N+]1=C2CCCCCN2C(O)(c2ccc(-c3ccccc3)cc2)C1.[Br-] (stereo unspecified) | 2.2 | > 32 | >80 | >80 | 16 | > 32 | >80 | >80 | > 32 | >80 | > 32 | 32 | >80 | 8 | >80 |  |
| COc1ccc([N+]2=C3COCCN3C(O)(c3ccc(-c4ccccc4)cc3)C2)cc1 (stereo unspecified) |  |  |  |  |  |  |  |  |  |  |  |  |  |  |  | Activity ([3]; dose 32.0 µg/ml): inactive; Activity ([4]; dose 32.0 µg/ml): inactive; Activity ([7]; dose 32.0 µg/ml): inactive; Activity [8, 16]: inactive; Activity ([10]; dose 32.0 µg/ml): inactive; Activity ([13]; dose 32.0 µg/ml): inactive; Activity ([15]; dose 32.0 µg/ml): inactive |
| COc1ccc([N+]2=C3CCCCN3C(O)(c3ccc(-c4ccccc4)cc3)C2)cc1 (stereo unspecified) |  |  |  |  |  |  |  |  |  |  |  |  |  |  |  | Activity ([3]; dose 32.0 µg/ml): inactive; Activity ([4]; dose 32.0 µg/ml): inactive; Activity ([7]; dose 32.0 µg/ml): inactive; Activity [8, 16]: inactive; Activity ([10]; dose 32.0 µg/ml): inactive; Activity ([13]; dose 32.0 µg/ml): inactive; Activity ([15]; dose 32.0 µg/ml): inactive |
| CCc1ccc([N+]2=C3CCCCCN3C(O)(c3ccc(-c4ccccc4)cc3)C2)cc1.[Br-] (stereo unspecified) | 2.2 | > 32 | >80 | >80 | 8 | > 32 | >80 | >80 | > 32 | >80 | 32 | > 32 | >80 | 32 | >80 |  |
| CC/C(=C(\c1ccccc1)c1ccc(OCCN(C)C)cc1)c1ccccc1 [TAMOXIFEN] | 9 (≈ 24.2 µM) |  |  |  |  |  |  |  |  |  |  |  |  |  |  |  |
| OC1(c2ccc(-c3ccccc3)cc2)C[N+](c2ccccc2)=C2CCCCCN21.[Br-] (stereo unspecified) | 2.3 | > 32 | >80 | >80 | 32 | > 32 | >80 | >80 | > 32 | >80 | > 32 | > 32 | >80 | > 32 | >80 |  |
| COc1ccc([N+]2=C3CCCCCN3C(O)(c3ccc(-c4ccccc4)cc3)C2)cc1.[Br-] (stereo unspecified) | 2.6 | > 32 | >80 | >80 | 16 | > 32 | >80 | >80 | > 32 | >80 | > 32 | > 32 | >80 | 32 | >80 |  |
